For this assay, the target named is α7 nAChR subtype (Rattus norvegicus, UniProt Q05941). The class given is binding. As to conditions: read-out: KD of radioligand.
Chain of α7 nAChR subtype (Q05941 23-502 limits assumed): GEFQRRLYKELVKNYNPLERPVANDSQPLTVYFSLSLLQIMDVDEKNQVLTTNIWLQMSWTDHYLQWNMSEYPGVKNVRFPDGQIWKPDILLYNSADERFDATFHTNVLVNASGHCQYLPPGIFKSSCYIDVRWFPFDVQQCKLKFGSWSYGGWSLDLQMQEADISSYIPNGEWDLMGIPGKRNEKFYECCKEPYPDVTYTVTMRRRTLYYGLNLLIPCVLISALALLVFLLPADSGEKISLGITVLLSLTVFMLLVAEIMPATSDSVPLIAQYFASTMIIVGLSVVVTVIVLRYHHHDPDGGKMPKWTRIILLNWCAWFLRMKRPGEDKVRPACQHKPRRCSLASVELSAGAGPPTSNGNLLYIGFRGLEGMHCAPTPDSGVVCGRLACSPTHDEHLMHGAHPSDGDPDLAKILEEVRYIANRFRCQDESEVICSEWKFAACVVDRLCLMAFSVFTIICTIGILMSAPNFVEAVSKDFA

Turning to ^125I-α-Bungarotoxin [^125I-α-BTX], the dissociation constant (Kd) was found to be 1.67 nM.

A word on the Kd: it is a measure of binding affinity in units of concentration.

Source of the values: patent US6995167B2 (priority 1999, dated 2006).
